In ChEMBL document CHEMBL1135852, “Inhibitors of NF-kappaB signaling: design and synthesis of a biotinylated isopanepoxydone affinity reagent” (2002):

Experiments:
[1] = tested on: HeLa; assay: Compound was tested for NF-kB inhibitory activity in Hela M cells; type: functional, Homo sapiens
[2] = tested on: HEK293; assay: Compound was tested for NF-kB inhibitory activity in HEK 293 cells; type: functional, Homo sapiens

Row | Structure (SMILES) | Inhibitory activity [1] | Inhibitory activity [2]
1 | CC(C)(O)/C=C/C1=CC(=O)[C@@H]2O[C@@H]2[C@@H]1O | >=100 | 
2 | CC(=O)O[C@H]1C(/C=C/C(C)(O)CCCCCCCCN2C(=O)c3ccccc3C2=O)=CC(=O)[C@@H]2O[C@@H]21 (stereo partly drawn) | <=0 | <=0
3 | CC(C)=C[C@@H](O)C1=C[C@@H](O)[C@@H]2O[C@@H]2C1=O | <=0 | <=0
4 | CC(C)(O)/C=C/C1=CC(=O)[C@@H]2O[C@@H]2C1=O | <=0 | <=0
5 | CC(=O)O[C@H]1C(/C=C/C(C)(C)O)=CC(=O)[C@@H]2O[C@@H]21 | <=0 | <=0
6 | CC(C)(O)/C=C/C1=CC(=O)[C@@H]2O[C@@H]2[C@H]1O | <=0 | 4
7 | CC(C)(O)/C=C/C1=C[C@@H](O)[C@@H]2O[C@@H]2C1=O | >=100 | 63
8 | CC(=O)O[C@@H]1C(/C=C/C(C)(C)O)=CC(=O)[C@@H]2O[C@H]12 | <=0 | <=0
9 | CC(=O)O[C@@H]1C(/C=C/C(C)(C)O)=C[C@@H](O)[C@@H]2O[C@@H]21 | >=100 | 58
10 | CC(=O)O[C@H]1C(/C=C/C(C)(C)O)=C[C@@H](O)[C@@H]2O[C@@H]21 | >=100 | 49
11 | CC(C)=CC(=O)C1=C[C@@H](O)[C@@H]2O[C@@H]2[C@@H]1O | 85 | 65
12 | CC(C)=C[C@H](O)C1=C[C@@H](O)[C@@H]2O[C@@H]2C1=O [PANEPOXYDONE] | <=0 | <=0
